Test results from ChEMBL document CHEMBL4425139, “Discovery, characterization, and lead optimization of 7-azaindole non-nucleoside HIV-1 reverse transcriptase inhibitors” (Bioorg Med Chem Lett, 2016).

Assays:
[1] = (§1) Cytotoxicity against HIV1 infected African green monkey Vero cells assessed as reduction in cell viability after 7 days by MTT assay; format: cell-based; conditions: chlorocebus sabaeus, HIV1 infected Vero cells
[2] = (§2) Cytotoxicity against HIV1 infected human PBMC cells assessed as reduction in cell viability after 7 days by MTT assay; format: cell-based; conditions: HIV1 infected PBMC cells
[3] = (§3) Cytotoxicity against HIV1 infected human CEM cells assessed as reduction in cell viability after 7 days by MTT assay; format: cell-based, CCRF-CEM; conditions: HIV1 infected CEM (CCRF-CEM) cells
[4] = system: Human immunodeficiency virus 1; assay: Antiviral activity against HIV-1 LAI infected in human PBM cells after 7 days; format: functional, organism-based; conditions: Human immunodeficiency virus 1, LAI, 168 h
[5] = molecular target: T1, Human immunodeficiency virus type 1 reverse transcriptase (Human immunodeficiency virus 1, UniProt Q72547); assay: Inhibition of HIV1 RT using 17-mer DNA/Alexa Fluor 488 5'-end labeled DNA/Alexa Fluor 555-aha-dUTP as primer/template/substrate preincubated for 10 mins followed substarte addition measured after 30 mins by FRET assay
[6] = molecular target: Human immunodeficiency virus type 1 reverse transcriptase (Human immunodeficiency virus 1, UniProt Q72547, E138K)
[7] = system: Human immunodeficiency virus 1; assay: Ratio of IC50 for HIV1 RT K103N mutant to IC50 for wild type HIV1 RT
[8] = system: Vero; assay: as §1; format: cell-based; conditions: chlorocebus sabaeus, vero, 168 h
[9] = molecular target: Human immunodeficiency virus type 1 reverse transcriptase (Human immunodeficiency virus 1, UniProt Q72547, V108I)
[10] = molecular target: Human immunodeficiency virus type 1 reverse transcriptase (Human immunodeficiency virus 1, UniProt Q72547, K103N)
[11] = system: PBMC; assay: as §2; format: cell-based; conditions: pbmc, 168 h
[12] = Ratio of CC50 for human PBM cells to EC50 for HIV-1 LAI infected in human PBM cells
[13] = system: CCRF-CEM; assay: as §3; format: cell-based; conditions: ccrf-cem, 168 h
[14] = molecular target: T1, Human immunodeficiency virus type 1 reverse transcriptase; assay: Inhibition of HIV1 RT using A5'-end 32P-labeled 24-mer primer/a48-mer template preincubated for 5 mins followed by 0.5 uM nucleotides addition measured after 15 mins by gel-based primer extension assay
[15] = system: Human immunodeficiency virus 1
[16] = molecular target: T1, Human immunodeficiency virus type 1 reverse transcriptase; assay: Inhibition of HIV1 RT using A5'-end 32P-labeled 24-mer primer/a48-mer template preincubated for 5 mins followed by 25 uM nucleotides addition measured after 2 mins by gel-based primer extension assay
[17] = system: Human immunodeficiency virus 1; assay: Ratio of IC50 for HIV1 RT E138K mutant to IC50 for wild type HIV1 RT
[18] = molecular target: T1, Human immunodeficiency virus type 1 reverse transcriptase; assay: Inhibition of HIV1 RT using A5'-end 32P-labeled 24-mer primer/a48-mer template preincubated for 5 mins followed by 10 uM nucleotides addition measured after 5 mins by gel-based primer extension assay
[19] = molecular target: T1, Human immunodeficiency virus type 1 reverse transcriptase; assay: Inhibition of HIV1 RT using A5'-end 32P-labeled 24-mer primer/a48-mer template preincubated for 5 mins followed by 1 uM nucleotides addition measured after 10 mins by gel-based primer extension assay

Row | Compound | EC50 [4] [nM] | IC50 [5] [µM] | CC50 [8] [µM] | CC50 [11] [µM] | Ratio CC50/EC50 [12] | CC50 [13] [µM] | other results
1 | Cc1ccnc2c1NC(=O)c1cccnc1N2C1CC1 [NEVIRAPINE] | 40 | – | – | – | – | – | CC50 at 168 h [1]: > 100 µM; CC50 at 168 h [2]: > 100 µM; CC50 at 168 h [3]: > 100 µM
2 | CC1(C)CC(=O)c2c(nc3c(c(C#N)cn3Cc3ccccc3)c2-c2ccc([N+](=O)[O-])cc2)C1 | – | 1.4 | – | – | – | – | –
3 | CCCCn1cc(C#N)c2c(-c3ccc(C(F)(F)F)cc3F)c3c(nc21)-c1ccccc1C3=O | 830 | 0.58 | 6.8 | > 100 | >100 | 48 | IC50 [6]: > 100 µM; Ratio IC50 [7]: 49; IC50 [9]: > 100 µM; IC50 [10]: 28 µM
4 | CC1(C)CC(=O)c2cc3c(C#N)cn(Cc4ccccc4)c3nc2C1 | 910 | 12 | > 100 | > 100 | >100 | 3.7 | –
5 | CCCc1c2c(nc3c1c(C#N)cn3C1CCCCC1)CCC2=O | 690 | > 100 | > 100 | > 100 | >100 | > 100 | –
6 | O=C1Nc2ccc(Cl)cc2[C@@](C#CC2CC2)(C(F)(F)F)O1 [EFAVIRENZ] | – | – | > 100 | > 100 | – | > 100 | –
7 | CC1(C)CC(=O)c2c(nc3c(c(C#N)cn3Cc3ccccc3)c2-c2ccccc2)C1 | 350 | 0.73 | > 100 | > 100 | >100 | > 100 | IC50 [14]: 10 µM; IC50 [6]: 69 µM; Ratio IC50 [15]: 11; Ratio IC50 [7]: 28; IC50 [9]: > 100 µM; IC50 [10]: 9.2 µM; IC50 [16]: 730 nM; Ratio IC50 [17]: 211; IC50 [18]: 960 nM; IC50 [19]: 8.9 µM
8 | Cc1ccc(-c2cnc3c(c2)c(C#N)cn3Cc2ccccc2)cc1 | 490 | > 100 | 8.1 | > 100 | >100 | > 100 | –
9 | Cc1cccc(C)c1-c1c2c(nc3c1c(C#N)cn3Cc1ccccc1)CC(C)(C)CC2=O | > 100000 | 26 | – | – | – | – | –
10 | CC1(C)CC(=O)c2c(nc3c(c(C#N)cn3Cc3ccccc3)c2-c2ccc(F)cc2)C1 | – | 2.9 | – | – | – | – | –
11 | C=CCn1cc(C#N)c2cc(C#N)cnc21 | 760 | > 100 | > 100 | > 100 | >100 | > 100 | –
12 | CC1(C)CC(=O)c2c(nc3c(c(C#N)cn3Cc3ccccc3)c2-c2c(F)cccc2F)C1 | 460 | 0.36 | – | – | – | – | –
13 | CC(C)(C)n1cc(C#N)c2cc(C=O)cnc21 | 490 | 14 | 8.1 | > 100 | >100 | > 100 | –
14 | N#Cc1cn(Cc2ccccc2)c2ncc(Br)cc12 | 470 | > 100 | > 100 | > 100 | >100 | > 100 | –
15 | CC1(C)CC(=O)c2c(nc3c(c(C#N)cn3Cc3ccccc3)c2-c2cccc(Cl)c2)C1 | 1000 | 58 | – | – | – | – | –
16 | CC(=O)c1c(C)nc2c(c(C#N)cn2Cc2ccccc2)c1-c1ccc([N+](=O)[O-])cc1 | 190 | 6.3 | > 100 | > 100 | >100 | > 100 | IC50 [6]: 59 µM; Ratio IC50 [15]: 12; Ratio IC50 [7]: 2.4; IC50 [9]: > 100 µM; IC50 [10]: 15 µM; Ratio IC50 [17]: 9.4
17 | CC(=O)c1cc2c(-c3ccc(N(C)C)cc3)c3c(nc2[nH]1)-c1ccccc1C3=O | 930 | 15 | 11 | > 100 | >100 | 24 | –
